Reference: article PMC8103899, “Allyl Isothiocyanate: A TAS2R38 Receptor-Dependent Immune Modulator at the Interface Between Personalized Medicine and Nutrition” (Frontiers in Immunology, 2021)

How the values were obtained:
[1] = tested on: TAS2R38-PAV receptor; set-up: method as in PMID 20022913; settings: cited from earlier work
[2] = Human food intervention: AITC metabolite plasma levels after mustard intake (LC-ESI-MS/MS); assay type: in vivo; settings: for detection in plasma: human volunteers after mustard preparation (data not shown); for blood plasma level: human volunteers
Protocol: AITC metabolite quantification was carried out in blood plasma samples derived from an intervention study at the University Medical Center in Freiburg, Germany. Samples were from 4 healthy young adults (3 females, 1 male, aged between 30-40 years) having a normal BMI, and were non-smokers. Each subject consumed one time 10 g of a commercially available mustard preparation ([…] Munich, Germany) containing 24.74 ± 1.76 μmol/g fresh weight preformed AITC on an empty stomach with optional consumption of white bread. The intervention was preceded by a 48 h wash-out phase consisting of a glucosinolate/ITC-free diet. After 30 min and optionally 60 min, blood was collected by venipuncture in serum tubes and centrifuged at 2000g for 10 min, 4°C to obtain serum. Subsequently, TFA was added and the samples frozen at -80°C. The preparation of serum samples (300 μL serum and 100 μL TFA) was conducted as described by Kühn et al. ([37]). The frozen samples were thawed, vortexed (1 min) and centrifuged (4 °C, 10 min, 20.854 x g). The supernatant was transferred to SPE cartridges. Prior to transferring, SPE cartridges were conditioned with acetonitrile (ACN, 3 mL) and equilibrated with water (3 mL). After sample application, the cartridges were washed with formic acid (FA, 3 mL, 0.1% in water) and the metabolites were eluted with FA (3 mL, 0.1% in ACN:water, 90:10, v/v). […] The samples were re-dissolved in 100 μL FA (0.1% in ACN:water, 90:10, v/v). Sample aliquots of 5 μL were injected into the LC-ESI-MS/MS system. LC-ESI-MS/MS analysis was performed on an API4000 triple quadrupole mass spectrometer (AB Sciex Germany GmbH, Darmstadt, Germany) equipped with an Agilent 1200 LC system (Agilent Technologies Deutschland GmbH & Co. KG, Waldbronn, Germany). For data acquisition and processing the software Analyst 1.6.1 (AB Sciex Germany GmbH, Darmstadt, Germany) was used. […] AITC-CysGly; AITC-Cys; AITC-NAC) was conducted according to Platz et al. ([38]) with minor modifications. The separation was performed on a Kinetex C18 column (Phenomenex, 5 μm, 100 Å, 150 x 2.1 mm). The autosampler operated at 4°C and the set temperature for the oven was 20°C. A constant flow of 300 μL/min was used for the mobile phase which consisted of 0.1% FA in water (A) and 0.1% FA in ACN (B). […] In order to equilibrate the column, A was increased to 90% and held for 5 min. The relevant MS parameters include an entrance potential of -10 V, a desolvation gas temperature of 450°C, ion spray potential of -4.5 kV, gas 1 and gas 2 at 46 psi and a curtain gas pressure at 10 psi.

[3] = molecular target: PLC-β2 (Homo sapiens, UniProt Q00722); assay: Calcium flux in PAV/PAV monocytes after PLC-β2 antagonist pre-treatment before AITC; settings: cell pretreatment with U73122 for 30 min
Sequence of PLC-β2 (Q00722 whole entry): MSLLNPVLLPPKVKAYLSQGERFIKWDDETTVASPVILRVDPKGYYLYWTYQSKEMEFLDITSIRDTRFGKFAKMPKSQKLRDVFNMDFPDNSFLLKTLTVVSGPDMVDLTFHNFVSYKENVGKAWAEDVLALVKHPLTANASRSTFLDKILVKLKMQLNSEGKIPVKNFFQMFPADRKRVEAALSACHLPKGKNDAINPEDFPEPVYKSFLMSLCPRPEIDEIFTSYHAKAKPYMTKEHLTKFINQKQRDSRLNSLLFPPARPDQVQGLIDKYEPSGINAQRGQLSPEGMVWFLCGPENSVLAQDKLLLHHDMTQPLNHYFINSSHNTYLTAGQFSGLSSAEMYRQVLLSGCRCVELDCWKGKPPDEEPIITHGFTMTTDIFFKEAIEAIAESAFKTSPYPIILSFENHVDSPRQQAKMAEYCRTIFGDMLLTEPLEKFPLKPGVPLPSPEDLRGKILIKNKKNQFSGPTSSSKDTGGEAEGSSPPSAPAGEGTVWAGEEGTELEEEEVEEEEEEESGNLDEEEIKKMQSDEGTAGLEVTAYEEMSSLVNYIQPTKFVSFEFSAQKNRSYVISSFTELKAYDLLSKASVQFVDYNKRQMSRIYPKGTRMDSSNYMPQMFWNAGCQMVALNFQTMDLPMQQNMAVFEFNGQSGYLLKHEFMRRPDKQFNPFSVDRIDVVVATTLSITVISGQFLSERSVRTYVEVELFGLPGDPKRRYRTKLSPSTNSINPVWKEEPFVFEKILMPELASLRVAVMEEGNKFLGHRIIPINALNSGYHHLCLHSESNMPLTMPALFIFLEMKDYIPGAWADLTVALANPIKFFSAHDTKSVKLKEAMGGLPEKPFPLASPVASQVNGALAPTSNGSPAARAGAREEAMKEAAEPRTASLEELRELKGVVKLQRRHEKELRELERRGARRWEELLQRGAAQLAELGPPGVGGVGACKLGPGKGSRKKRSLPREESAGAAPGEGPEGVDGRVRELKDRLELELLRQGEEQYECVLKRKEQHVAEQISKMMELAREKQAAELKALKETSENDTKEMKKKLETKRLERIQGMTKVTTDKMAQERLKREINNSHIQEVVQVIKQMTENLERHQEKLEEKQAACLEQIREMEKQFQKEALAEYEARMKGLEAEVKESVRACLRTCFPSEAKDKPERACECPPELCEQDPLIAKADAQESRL

[4] = tested on: TRPA1; set-up: method as in PMID 21763756; settings: calcium assays; cited from earlier work
[5] = tested on: extracellular calcium influx in monocytes; assay: Calcium flux in PAV/PAV monocytes after EDTA pre-treatment before AITC; settings: 0.5 mM EDTA
[6] = molecular target: TRPV1 (Homo sapiens, UniProt Q8NER1); assay: Calcium flux in PAV/PAV monocytes after TRPV1 antagonist pre-treatment before AITC; assay type: cell-based
Sequence of TRPV1 (Q8NER1 whole entry): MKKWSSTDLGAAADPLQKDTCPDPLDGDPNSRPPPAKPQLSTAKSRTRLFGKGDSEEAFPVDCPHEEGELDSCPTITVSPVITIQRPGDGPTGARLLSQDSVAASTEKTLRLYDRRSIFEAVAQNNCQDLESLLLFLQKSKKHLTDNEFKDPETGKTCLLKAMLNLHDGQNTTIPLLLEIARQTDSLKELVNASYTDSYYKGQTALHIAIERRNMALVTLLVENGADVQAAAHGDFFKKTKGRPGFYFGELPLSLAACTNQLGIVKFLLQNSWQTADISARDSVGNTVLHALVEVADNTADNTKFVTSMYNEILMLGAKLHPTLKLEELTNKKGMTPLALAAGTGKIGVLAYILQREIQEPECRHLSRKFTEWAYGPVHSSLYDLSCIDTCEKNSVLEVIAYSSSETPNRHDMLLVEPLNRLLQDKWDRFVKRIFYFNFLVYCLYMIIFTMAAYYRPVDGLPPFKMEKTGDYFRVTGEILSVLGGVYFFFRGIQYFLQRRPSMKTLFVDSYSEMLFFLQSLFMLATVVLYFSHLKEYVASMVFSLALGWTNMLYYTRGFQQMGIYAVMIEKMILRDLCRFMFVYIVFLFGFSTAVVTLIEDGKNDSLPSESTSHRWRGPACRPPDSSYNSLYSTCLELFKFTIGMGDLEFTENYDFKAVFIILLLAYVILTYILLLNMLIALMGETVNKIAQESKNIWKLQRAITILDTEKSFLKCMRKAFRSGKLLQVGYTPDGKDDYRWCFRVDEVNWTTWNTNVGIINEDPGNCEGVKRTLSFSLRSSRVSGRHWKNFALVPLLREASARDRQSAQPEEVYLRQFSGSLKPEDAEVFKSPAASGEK
Protocol: Baseline fluorescence was recorded for 60 sec.

[7] = tested on: TAS2R38; set-up: method as in PMID 23041624; settings: sinonasal cells, TAS2R38 genotype dependent; cited from earlier work
[8] = tested on: intracellular calcium release; set-up: method as in PMID 8393876; settings: 1% DMSO; cited from earlier work
[9] = molecular target: T1, TAS2R38 receptor (Homo sapiens, UniProt P59533, A49P/I296V); assay: Calcium flux assay in human PBMC (flow cytometry, Fluo-4 AM); settings: human PAV/PAV monocytes
T1 sequence (P59533 1-333 A49P/I296V): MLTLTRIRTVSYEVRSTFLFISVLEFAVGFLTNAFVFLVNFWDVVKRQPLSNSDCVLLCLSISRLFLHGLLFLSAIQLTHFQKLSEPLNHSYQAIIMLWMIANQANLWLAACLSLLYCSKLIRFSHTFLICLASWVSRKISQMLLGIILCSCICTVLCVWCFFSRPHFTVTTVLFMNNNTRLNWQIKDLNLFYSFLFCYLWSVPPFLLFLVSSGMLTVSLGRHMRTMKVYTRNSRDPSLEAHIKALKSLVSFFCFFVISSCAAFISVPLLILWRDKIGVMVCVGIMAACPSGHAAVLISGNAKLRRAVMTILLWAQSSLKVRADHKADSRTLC

[10] = tested on: TAS2R38-PAV; set-up: method as in PMID 28902853; settings: transfected HEK293 cells (~0.9% DMSO solution), approximately; cited from earlier work
[11] = tested on: sinonasal epithelial cells; set-up: method as in PMID 24531552; settings: cited from earlier work
[12] = tested on: LPS stimulated leukocytes; settings: cited from earlier work

## S=C=NCCc1ccccc1 [phenylethyl ITC]
[1]
  activation of the TAS2R38-PAV receptor: activated

## C=CCNC(=S)SC[C@H](NC(=O)CC[C@H](N)C(=O)O)C(=O)NCC(=O)O [AITC-GSH]
[2]
  detection in plasma: No other AITC metabolites (AITC-GSH or AITC-CG) could be detected

## COc1ccc2c(c1)CC[C@@H]1[C@@H]2CC[C@]2(C)[C@@H](NCCCCCCN3C(=O)C=CC3=O)CC[C@@H]12 [U73122]
[3]
  effect on AITC induced calcium release: almost completely block

## C=CCC(=NOS(=O)(=O)O)S[C@@H]1O[C@H](CO)[C@@H](O)[C@H](O)[C@H]1O (stereo in doubt) [sinigrin]
[1]; HEK293T-Gα16gust44 cells transiently transfected
  activation of TAS2R38 taster variant among 25 TAS2Rs: selectively triggered the taster variant

## O=C(O)CN(CCN(CC(=O)O)CC(=O)O)CC(=O)O [EDTA]
[5]; 1 µM AITC
  effect on calcium influx triggered by AITC: did not impact
[5]; 100 µM AITC
  reduction in calcium flux: 67%

## Oc1cc2c(cc1O)CN(C(=S)NCCc1ccc(Cl)cc1)CCC2 [capsazepine]
[6]; capsazepine pretreatment, 1 µM AITC
  effect on AITC mediated calcium release: not effected
[6]; pretreatment 10 µM capsazepine, stimulation with 100 µM AITC
  effect on AITC mediated calcium release: reduction of AITC mediated calcium release

## NC(=S)Nc1ccccc1 [PTC]
[7]
  NO production: stimulated

## C[S+](C)[O-] [DMSO, Dimethyl sulfoxide]
[8]
  calcium release: significant calcium release
[9]; 0.1% DMSO
  effect on calcium release: no effect
[9]; starting from 1.5% DMSO, not statistically significant
  mean calcium increase compared to untreated cells: 36%
[10]
  threshold concentration: > 125 mM

## C=CCNC(=S)SC[C@H](NC(C)=O)C(=O)O [AITC-NAC]
[2]; 0.5 h after 10 g mustard preparation
  blood plasma level: 836.7 ± 67.7 nM
[2]; 1 h after 10 g mustard preparation
  blood plasma level: 1001.0 ± 228.3 nM

## C[S@@+]([O-])CCCCN=C=S [L-sulforaphane]
[1]
  activation of the TAS2R38-PAV receptor: did not

## C=CCNC(=S)SC[C@H](N)C(=O)NCC(=O)O [AITC-CG]
[2]
  detection in plasma: No other AITC metabolites (AITC-GSH or AITC-CG) could be detected

## CC[N+](CC)(CC(=O)Nc1c(C)cccc1C)Cc1ccccc1 [denatonium]
[11]
  cytokine release: marginal change
[12]
  multiple cytokine production, including TNF-α: marked reduction
